Data taken from patent US20140273139A1, “Direct Fermentation of Biomass to Fuel Precursors” (Innovative Metabolism Inc., priority 2013, published 2014).

Legend:
[1] = tested on: P. chrysosporium; test: Submerged liquid fermentation in the presence of air and gaseous mitochondrial inhibitor (GC-MS of headspace); format: cell-based, Phanerochaete chrysosporium; conditions: aerobic culture, NO target concentration 1 μM, 2% glucose, 37° C.
Experimental: In this experiment P. chrysosporium was grown from conidiospores in submerged liquid culture. The growth medium was Highley's Basal salts [Wymelenberg, A. V., et al., The Phanerochaete chrysosporium secretome: database predictions and initial mass spectrometry peptide identifications in cellulose-grown medium. J Biotechnol, 2005. 118(1): p. 17-34.] supplemented with 0.1% yeast extract (YE) and 2% glucose. Conidiospores were inoculated in liquid medium in 3 neck flasks. The temperature was maintained at 37° C. The cultures were mixed using magnetic stir bars and gasses (air, nitrogen, and air supplemented with nitric oxide (NO)) were bubbled through the medium using stainless steel needles. Fungi were grown: 1) aerobically; 2) anaerobically; and 3) aerobically with NO delivered to a target concentration of 1 μM. Cultures were sampled daily and analyzed using GC-MS (FIG. 3). P. chrysosporium grew rapidly forming large, encapsulated masses of material.
The identity of the ethanol peak was confirmed by MS analysis. Samples were transferred to glass septum vials and heated to 60° C. A gas-tight syringe was used to sample 50 μl from the headspace. Samples were analyzed on a 6890N GC system with a 5975 Mass Selective Detector (Agilent) using a PH Innowax column.

[2] = tested on: P. chrysosporium and K. marxianus; test: Solid-state fermentation of corn stover by consortium in the presence of carbon monoxide; format: cell-based, Phanerochaete chrysosporium / Kluyveromyces marxianus; conditions: 90% CO and 10% air, first 27 days
Experimental: In this example, solvent-producing fermentation was initiated by introduction of a mix of air and CO, a competitive inhibitor of cytochrome c oxidase. Corn stover was prepared as described in Example 7. A mixture of P. chrysosporium conidiospores and mycelia harvested from agar medium, and 1 ml of K. marxianus from an overnight culture in YPD broth were added to the stover. The mixture was transferred to the rotating drum of the solid-state bioreactor under sterile conditions. The bioreactor was sealed and placed in a 44° C. incubator.
Growth was established under aerobic conditions (10 ml/min of air was flowed through the bioreactor for 17 hours). Fermentation was initiated by flowing a mixture comprised of 90% CO and 10% air through the bioreactor. During the first 27 days productivity peaked at 2.3×10^−5 g solvent/hr/g biomass remaining and yield for the period was 5.7% of biomass consumed (FIG. 8).

[3] = tested on: P. chrysosporium; test: Solid-state fermentation of corn stover by P. chrysosporium in the presence of carbon monoxide; format: cell-based, Phanerochaete chrysosporium; conditions: 10% air and 90% CO, through Day 44
Experimental: In this example solvent fermentation was initiated by introduction of a mix of 10% air and 90% CO. Corn stover was prepared as described in Example 7. P. chrysosporium conidiospores and mycelia harvested from agar medium were added to the stover and the mixture was transferred to the rotating drum of the solid-state bioreactor under sterile conditions. The bioreactor was sealed and placed in a 44° C. incubator. The volume of gas flow remained constant at 10 ml/min for the entire experiment.
The fermentor was run aerobically for 45 hours to establish growth. Between hour 45 and Day 44 a gas mix comprised of 10% air and 90% CO was flowed through the system. Fungal metabolic activity was restored by flowing air through the system from Day 51-55. From Day 57-65 the fermentation was run anaerobically in the absence of CO. Fungal metabolic activity was again restored by aerobic growth from Day 65-68, and then anaerobic fermentation was continued from Day 68-82.

[4] = tested on: P. chrysosporium; test: Submerged liquid fermentation under reduced oxygen with the mitochondrial inhibitor rotenone (GC-MS, standard curves); format: cell-based, Phanerochaete chrysosporium
Experimental: In this experiment P. chrysosporium was grown from conidiospores in submerged liquid culture. The growth medium was Highley's Basal salts [Wymelenberg, A. V., et al., The Phanerochaete chrysosporium secretome: database predictions and initial mass spectrometry peptide identifications in cellulose-grown medium. J Biotechnol, 2005. 118(1): p. 17-34.] supplemented with 0.1% yeast extract (YE) and 2% glucose. Conidiospores were inoculated in 50 ml of liquid medium in a 250 ml Erlenmyer flask which was then capped with a 3-piece fermentation lock to prevent evaporation of volatile products and to allow the culture to incubate in a reduced oxygen environment. The culture was incubated statically.
A large mass of fungus was produced and remained suspended near the top of the medium. Samples were collected, transferred to glass septum vials and heated to 60° C. Samples were analyzed on a 6890N GC system with a 5975 Mass Selective Detector (Agilent) using a PH Innowax column. […] Standard curves were performed for each solvent. The concentrations in the fermentation broth were determined to be 0.74 mM for acetone, 1.8 mM for isopropanol, and 1.9 mM for ethanol. This experiment provided the first indication that P. chrysosporium was capable of fermenting sugars to acetone and isopropanol.

[5] = rotenone-treated, reduced oxygen, static culture

nitric oxide
ethanol production by the culture [1]: appeared to enable ethanol production in the presence of dissolved oxygen

[C-]#[O+] [CO, carbon monoxide]
solvents produced [2]: Ethanol was the only solvent produced in significant quantities | peak productivity ([2]; 44° C.): 2.3×10^−5 g solvent/hr/g biomass remaining | solvent yield ([2]; 44° C.): 5.7 % of biomass consumed | acetone share of solvent mix [3]: 28% | ethanol share of solvent mix [3]: 72% | isopropanol share of solvent mix [3]: only trace amounts

C=C(C)[C@H]1Cc2c(ccc3c2O[C@@H]2COc4cc(OC)c(OC)cc4[C@@H]2C3=O)O1 [Rotenone, rotenone]
solvents produced in the presence of the inhibitor ([4]; liquid culture, oxygen-limited conditions, glucose): production of acetone, isopropanol and ethanol | acetone concentration in the fermentation broth [4, 5]: 0.74 mM | ethanol concentration in the fermentation broth [4, 5]: 1.9 mM | isopropanol concentration in the fermentation broth [4, 5]: 1.8 mM
